Measurements from article PMC4456360, “A Recombinant Fungal Lectin for Labeling Truncated Glycans on Human Cancer Cells” (PLoS ONE, 2015).
“And” between values parts separate entries of the source, which are not always exact repeats. Identical values can stand only once. Marks after values point to notes of the source that are not given here.

Experiments:
rPVL [1] = target: T1, rPVL (Lacrymaria velutina (Psathyrella velutina), UniProt Q309D1); assay: Surface plasmon resonance, oligosaccharides injected over rPVL-coated CM5 chip; type: binding; details: 25°C, rPVL immobilized on chip; for Kd: read-out: SPR Kd
T1 sequence (Q309D1 1-395): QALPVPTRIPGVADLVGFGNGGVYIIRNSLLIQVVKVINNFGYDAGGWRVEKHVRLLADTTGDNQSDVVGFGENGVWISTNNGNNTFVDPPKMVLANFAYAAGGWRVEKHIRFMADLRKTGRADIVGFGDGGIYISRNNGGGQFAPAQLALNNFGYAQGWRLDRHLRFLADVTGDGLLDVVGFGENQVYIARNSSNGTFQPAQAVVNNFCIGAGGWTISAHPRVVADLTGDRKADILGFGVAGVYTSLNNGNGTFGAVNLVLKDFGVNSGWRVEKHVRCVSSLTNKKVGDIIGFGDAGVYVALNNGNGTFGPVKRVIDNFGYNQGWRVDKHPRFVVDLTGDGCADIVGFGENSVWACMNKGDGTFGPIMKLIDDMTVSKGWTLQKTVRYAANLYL
Method: All SPR experiments were performed on a Biacore X100 instrument (GE Healthcare) at 25°C in HBS (10 mM Hepes/NaOH, pH 7.5, 150 mM NaCl, 0.05% Tween 20) supplemented with 100 μM of CaCl2 at a flow rate of 30 μl min^-1. Binding was measured as resonance units over time after blank subtraction, and data were then evaluated by using the Biacore X100 evaluation software, version 2.0. Dissociation constants were determined by plotting response at equilibrium (Req, 10 s before the end of injection) against analyte concentration. For protein coated chip, 3500 resonance units of rPVL (100 μg ml^-1, 10 mM acetate buffer pH 6.2) have been immobilized on flow channel 2 of a research grade CM5 chip using standard amine coupling procedures. Flow channel 1 has been activated/deactivated. Experiments consist of injection (association 360 s, dissociation 400 s) of various concentrations of oligosaccharides (2 fold cascade dilutions, from 0 to 10 μM) on both channels.

rPVL [2] = target: T1, rPVL; assay: Thermal shift analysis of rPVL with glycan ligands; type: binding
Method: Thermal shift assays were performed using a Mini Opticon, Real Time PCR machine (Bio-Rad Laboratories) with 0.5 mg ml^-1 of protein diluted in 100 mM NaCl, 20 mM Tris pH 7.5, 100 μM CaCl2, with or without oligosaccharide in a total reaction volume of 25 μl. SYPRO Orange (Molecular Probes, CA) was used as a fluorescent probe detected at 530 nm. The temperature was raised using 1°C/minute steps from 25°C to 100°C and fluorescence readings were taken at each interval. […] A minimum of two independent measurements were performed for each condition

rPVL [3] = target: T1, rPVL; assay: Titration microcalorimetry (ITC), rPVL in solution; type: binding; details: for ITC -∆H / ITC T∆S / Kd / ITC n (number of binding sites per monomer): 25°C; for Kd: rPVL in solution; for ITC n: stoichiometry value fixed during fitting procedure
Method: Recombinant lyophilized rPVL was dissolved in buffer (20 mM Tris/HCl, pH 7.5, NaCl 150 mM, 100 μM CaCl2) and degassed. The protein concentration was checked by measuring A280 by using a theoretical molar extinction coefficient of 65,890 M^-1 cm^-1. Carbohydrate ligands were dissolved in the same buffer, degassed, and loaded in the injection syringe. ITC was performed with a ITC200 microcalorimeter (GE Healthcare). The rPVL solution was placed in a 200 μl sample cell at 25°C. Titration was performed with 20 injections of 2 μl carbohydrate ligands every 120 s. The experimental data were fitted to a theoretical titration curve using Origin software supplied by GE Healthcare, with ΔH (enthalpy change), Ka (association constant) and n (number of binding sites per monomer) as adjustable parameters. Free energy change (ΔG) and entropy contributions (TΔS) were derived from the equation ΔG = ΔH – TΔS = —RT ln Ka (with T as the absolute temperature and R = 8.314 J mol^-1 K^-1). Two independent titrations were performed for each tested ligand.

rPVL [4] = target: T1, rPVL; assay: Glycan array (CFG Mammalian Printed Array version 5.1); type: binding; details: Alexa Fluor 488 labeled rPVL
Text: Purified rPVL were labeled with Alexa Fluor 488 (Invitrogen) according to the manufacturer’s instructions and repurified on a D-Salt polyacrylamide desalting column (Pierce). Alexa-labeled rPVL was used for glycan array screening with the standard procedure of the Protein-Glycan Interaction Core (H) of the Consortium for Functional Glycomics.

native PVL = target: native PVL; set-up: method as in PMID 16497330; details: ITC, native PVL isolated from mushroom; cited from earlier work

## CC(=O)N[C@H]1[C@H](O[C@H]2[C@@H](O)[C@@H](CO)OC(O)[C@@H]2O)O[C@H](CO)[C@@H](O)[C@@H]1O (some centres unmarked) [GlcNAcβ1-3Gal]
rPVL [1]
  Kd: 103 µM
rPVL [2]
  Tm of rPVL in the presence of ligand: 60 °C
rPVL [3]
  ITC -∆H: 10.1 kcal/mol
  ITC T∆S: -4.66 kcal/mol
  Kd: 110 µM

## CC(=O)N[C@H]1[C@H](O[C@H]2[C@@H](O)[C@@H](CO)OC(O)[C@@H]2NC(C)=O)O[C@H](CO)[C@H](O)[C@@H]1O (some centres unmarked) [GalNAcβ1-3GalNAc]
rPVL [4]
  binding of rPVL on glycan array (in words): minor intensity

## CC(=O)N[C@@H]1[C@@H](O)[C@H](O[C@@H]2O[C@H](CO)[C@@H](O[C@@H]3O[C@H](CO[C@H]4O[C@H](CO)[C@@H](O)[C@H](O)[C@@H]4O[C@@H]4O[C@H](CO)[C@@H](O)[C@H](O)[C@H]4NC(C)=O)[C@@H](O)[C@H](O[C@H]4O[C@H](CO)[C@@H](O)[C@H](O)[C@@H]4O[C@@H]4O[C@H](CO)[C@@H](O)[C@H](O)[C@H]4NC(C)=O)[C@@H]3O)[C@H](O)[C@H]2NC(C)=O)[C@@H](CO)O[C@H]1N=[N+]=[N-] [Biantennary N-glycan (2)]
rPVL [1]
  Kd: 179 µM
rPVL [3]
  ITC -∆H: 3.27 kcal/mol
  ITC T∆S: 2.82 kcal/mol
  ITC n (number of binding sites per monomer): 1.9 ± 0.6
  Kd: 34 µM and 34.4 µM
rPVL [3]; listed as biantennary heptasaccharide
  ITC n (number of binding sites per monomer): two

## Galβ1-3GlcNAcβ1-3Galβ1-4Glc [Galβ1-3GlcNAcβ1-3Galβ1-4Glc (LNT)]
rPVL [1]
  SPR Kd: No binding

## OC[C@H]1O[C@@](CO)(O[C@H]2O[C@H](CO)[C@@H](O)[C@H](O)[C@H]2O)[C@@H](O)[C@@H]1O [sucrose]
rPVL [2]
  stabilization of rPVL by carbohydrate (in words): non-binding

## CC(=O)N[C@H]1[C@H](O[C@H]2[C@H](O)[C@@H](NC(C)=O)[C@H](O[C@H]3[C@H](O)[C@@H](NC(C)=O)C(O)O[C@@H]3CO)O[C@@H]2CO)O[C@H](CO)[C@@H](O[C@@H]2O[C@H](CO)[C@@H](O[C@@H]3O[C@H](CO)[C@@H](O)[C@H](O)[C@H]3NC(C)=O)[C@H](O)[C@H]2NC(C)=O)[C@@H]1O (stereo partly drawn) [GlcNAc(β1-4GlcNAc)4, GlcNAcβ1-4GlcNAcβ1-4GlcNAcβ1-4GlcNAcβ1-4GlcNAc]
rPVL [1]
  Kd: 358 µM

## CC(=O)N[C@H]1[C@H](O[C@H]2[C@@H](O)[C@@H](CO)O[C@@H](O[C@H]3[C@H](O)[C@@H](O)C(O)O[C@@H]3CO)[C@@H]2O)O[C@H](CO)[C@@H](O)[C@@H]1O (some centres unmarked) [GlcNAcβ1-3Galβ1-4Glc (LNT2), GlcNAcβ1-3Galβ1-4Glc]
rPVL [1]; listed as lacto-N-triose
  Kd: ~70 µM
rPVL [1]
  Kd: 71 µM
rPVL [3]
  ITC -∆H: 9.97 kcal/mol
  ITC T∆S: -4.57 kcal/mol
  ITC n (number of binding sites per monomer): 5.0 ± 0.2
  Kd: 108 µM

## CC(=O)N[C@H]1[C@H](O[C@H]2[C@H](O)[C@@H](NC(C)=O)C(O)O[C@@H]2CO)O[C@H](CO)[C@@H](O)[C@@H]1O (some centres unmarked) [GlcNAcβ1-4GlcNAc]
rPVL [1]
  Kd: 205 µM
rPVL [4]
  binding of rPVL on glycan array (in words): only weakly
rPVL [2]
  Tm of rPVL in the presence of ligand: 60 °C
rPVL [3]
  ITC -∆H: 8.82 kcal/mol
  ITC T∆S: -3.49 kcal/mol
  Kd: 122 µM
  ITC n: 5.0 ^b

## O=C[C@H](O)[C@@H](O)[C@@H](O)[C@H](O)CO [galactose]
rPVL [2]
  stabilization of rPVL by carbohydrate (in words): non-binding

## CC(=O)N[C@@H]1[C@@H](O)[C@H](O)[C@@H](CO)O[C@H]1O [GlcNAc, N-acetylglucosamine]
rPVL [1]
  Kd: 132 µM
Native PVL
  Kd: ~200 µM
rPVL [3]
  ITC -∆H: 9.85 kcal/mol
  ITC T∆S: -4.3 kcal/mol
  Kd: 124 µM
  ITC n: 5.0 ^b
